# Values of other authors as cited in US20130331575A1, “Method for resolution of 4-((1R,3S)-6-chloro-3-phenyl-indan-1-yl)-1,2,2-trimethyl-piperazine and 1-((1R,3S)-6-chloro-3-phenyl-indan-1-yl)-3,3-dimethyl-piperazine” (priority 2011, published 2013).
# Experiments:
# D2 = D2 (Homo sapiens, UniProt P14416); conditions: in vitro
# D1 and D2 = conditions: in vivo
# 5-HT2 = 5-HT2 (Homo sapiens, UniProt P28223)
# D1 = D1 (Homo sapiens, UniProt P21728); conditions: in vitro
# D1, sequence (P21728 whole entry): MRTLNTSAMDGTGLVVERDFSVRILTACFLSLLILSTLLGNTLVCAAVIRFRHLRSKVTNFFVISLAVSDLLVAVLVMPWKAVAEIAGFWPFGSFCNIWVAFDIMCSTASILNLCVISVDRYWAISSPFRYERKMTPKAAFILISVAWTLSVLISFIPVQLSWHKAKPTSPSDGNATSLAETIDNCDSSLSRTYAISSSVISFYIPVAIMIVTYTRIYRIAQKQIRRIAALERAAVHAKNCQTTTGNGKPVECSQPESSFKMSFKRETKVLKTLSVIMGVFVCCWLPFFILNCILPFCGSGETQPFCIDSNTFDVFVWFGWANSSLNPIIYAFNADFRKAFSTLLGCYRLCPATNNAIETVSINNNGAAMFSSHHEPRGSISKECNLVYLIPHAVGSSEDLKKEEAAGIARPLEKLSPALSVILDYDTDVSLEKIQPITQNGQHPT
# 5-HT2, sequence (P28223 whole entry, species assumed): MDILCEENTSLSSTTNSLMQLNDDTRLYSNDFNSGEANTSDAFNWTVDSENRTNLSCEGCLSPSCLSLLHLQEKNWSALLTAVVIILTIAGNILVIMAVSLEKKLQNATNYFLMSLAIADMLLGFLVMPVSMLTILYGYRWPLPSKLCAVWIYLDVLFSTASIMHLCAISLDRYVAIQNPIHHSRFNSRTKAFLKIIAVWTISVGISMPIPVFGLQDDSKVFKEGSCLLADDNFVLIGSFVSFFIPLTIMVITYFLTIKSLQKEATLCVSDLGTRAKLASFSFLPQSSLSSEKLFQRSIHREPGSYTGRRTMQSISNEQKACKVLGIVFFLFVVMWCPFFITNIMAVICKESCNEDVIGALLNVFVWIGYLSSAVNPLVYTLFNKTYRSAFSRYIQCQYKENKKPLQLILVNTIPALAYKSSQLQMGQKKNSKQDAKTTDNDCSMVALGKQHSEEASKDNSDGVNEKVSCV
# D2, sequence (P14416 whole entry): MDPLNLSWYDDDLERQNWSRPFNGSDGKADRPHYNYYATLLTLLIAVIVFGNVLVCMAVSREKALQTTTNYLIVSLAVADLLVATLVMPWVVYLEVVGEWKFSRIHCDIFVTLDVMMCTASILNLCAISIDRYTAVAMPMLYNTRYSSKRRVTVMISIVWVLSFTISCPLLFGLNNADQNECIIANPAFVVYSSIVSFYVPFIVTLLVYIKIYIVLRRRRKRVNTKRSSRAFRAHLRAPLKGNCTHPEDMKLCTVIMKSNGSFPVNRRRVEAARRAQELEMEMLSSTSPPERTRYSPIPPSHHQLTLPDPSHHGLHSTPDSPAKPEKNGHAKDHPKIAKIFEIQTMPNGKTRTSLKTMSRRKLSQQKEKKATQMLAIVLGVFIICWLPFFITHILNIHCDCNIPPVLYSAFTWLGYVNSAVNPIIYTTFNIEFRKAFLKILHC
smiles,measurement,setting,value
"CN1CCN([C@@H]2C[C@@H](c3ccccc3)c3ccc(Cl)cc32)CC1(C)C [Compound (I), 4-((1R,3S)-6-chloro-3-phenyl-indan-1-yl)-1,2,2-trimethyl-piperazine]",D2 antagonist potency,D2,potent
same,relative potency as D1 and D2 antagonist,D1 and D2,equipotent as D1 and D2 antagonist
same,5-HT2 antagonist potency,5-HT2,potent 5-HT2 antagonist
same,affinity for α1 adrenoceptors,α1 adrenoceptors,high affinity
same,D1 antagonist potency,D1,potent
same,D1 versus D2 selectivity,D1,some D1 selectivity
